What was measured:
[1] = tested on: DSS-induced chronic colitis; experiment: DSS mouse model, Experiment 1: chronic colitis; format: in vivo, C57BL/6 female mice
Protocol: Experiment 1—Chronic Colitis: 14-week-old C57BL/6 female mice were given 3 cycles of DSS. Each cycle consisted of 7 days on DSS (cycle 1: 1%; cycle 2: 1.5%, cycle 3: 1%), immediately followed by 7 days of regular drinking water. Either vehicle or panaxynol was administered 3×/week beginning on the day prior to the first DSS cycle (day −1) until study completion (FIG. 9A). To ensure the induction of colitis and to quantify disease states, colitis symptoms were monitored 3×/week using a pre-established disease activity index (DAI), which quantifies bodyweight loss, stool consistency, and rectal bleeding to produce an overall symptom score; a higher score correlates with worsened disease. Mice were euthanized on day 42—one day after the last dose of panaxynol was given. Data presented in FIG. 9A-9F was obtained from 2 cohorts of Experiment 1—Chronic Colitis.
Panaxynol (PA; C17H24O) was purchased from Biopurify Pytochemicals Ltd in sealed 5 mg/mL vials in pure 95% ethanol and stored at −20° C. PA was prepared fresh on the day of treatment by diluting in H2O to 1 mg/mL for administration (p.o.) at a dosage of 2.5 mg/kg. This dosage was chosen following a pilot dose-response study to determine PA's efficacy. PA or VEH was administered 3×/week via oral gavage using flexible plastic tubing gavage needles (Instech, Cat #FTP-20) for a total of 12 weeks.
All mice underwent the same symptom monitoring and scoring. Body weights and symptom scores were determined […] to quantify disease state, with a higher score indicative of a worsened disease state. Symptom scores were calculated by scoring percent body weight loss, stool consistency, and rectal bleeding as previously described. Briefly, fresh colonic evacuates were smeared onto “Hemoccult” tape (Beckman Coulter) to assess severity of diarrhea and were tested with developer (Beckman Coulter) to assess rectal bleeding. Stool consistency was scored as follows: solid cylinder (0), soft cylinder and easily spreadable (2), and noncylindrical or runny (4). Bleeding was scored as follows: no positive detection of blood (0), detection of blood but not grossly visible (2), and gross visibility of blood (4). Body weight was calculated as percent bodyweight loss: 0%-5% (0), 6%-10% (1), 11%-15% (2), 15%-20% (3), 20%-25% (4), and >25% (5). Scores of all three categories were summed to obtain an overall symptom score for each mouse.
(§1) Prior to euthanasia, colonoscopies were performed (n=3/group) to visualize the colonic tissue and quantify the severity of disease (colitis and colorectal tumors) using an established protocol. Briefly, mice were anesthetized with isoflurane to perform a detailed endoscopic examination in which the endoscope was gently inserted into the rectum and through the anus. Air was applied to slowly set apart the intestinal walls for examination. As the scope advanced, pictures were taken frequently and the following were meticulously assessed and scored by the blinded primary investigator using the well-established scoring system to integrate evaluation of intestinal inflammation (i.e., focal lesions (edematous areas of mucosa, erosions/reddened areas, ulcers), perianal region findings (diarrhea, bloody anal discharge, or prolapse), transparency of the colonic wall (visualization of the intramural blood vessels), and presence of intestinal bleeding) and tumors. Scoring was performed as previously described with no modifications. Upon completion of colonoscopies, mice were placed on a warm pad set at 37° C. for 5 min.

[2] = tested on: DSS-induced acute colitis; experiment: DSS mouse model, Experiment 2: acute colitis; format: in vivo, C57BL/6 female mice
Protocol: Experiment 2—Acute Colitis: 14-week-old C57BL/6 female mice were given 1 cycle of 2% DSS in drinking water for 7 days, immediately followed by 7 days of regular drinking water. Either vehicle or panaxynol was administered 3×/week beginning on the day prior to the first DSS cycle (day −1) until study completion (FIG. 10A). To ensure the induction of colitis and to quantify disease states, colitis symptoms were monitored every other day using the same DAI as above. Mice were euthanized on day 14—one day after the last dose of panaxynol was given. Colons were placed in the appropriate buffers for further analysis. Data presented in FIGS. 10-14 (i.e., histology, immunofluorescence, electron microscopy, and flow cytometry) was obtained using colonic tissue from 2 cohorts of Experiment 2—Acute Colitis.
Panaxynol (PA; C17H24O) was purchased from Biopurify Pytochemicals Ltd in sealed 5 mg/mL vials in pure 95% ethanol and stored at −20° C. PA was prepared fresh on the day of treatment by diluting in H2O to 1 mg/mL for administration (p.o.) at a dosage of 2.5 mg/kg. This dosage was chosen following a pilot dose-response study to determine PA's efficacy. […]
All mice underwent the same symptom monitoring and scoring. […] Symptom scores were calculated by scoring percent body weight loss, stool consistency, and rectal bleeding as previously described. Briefly, fresh colonic evacuates were smeared onto “Hemoccult” tape (Beckman Coulter) to assess severity of diarrhea and were tested with developer (Beckman Coulter) to assess rectal bleeding. Stool consistency was scored as follows: solid cylinder (0), soft cylinder and easily spreadable (2), and noncylindrical or runny (4). Bleeding was scored as follows: no positive detection of blood (0), detection of blood but not grossly visible (2), and gross visibility of blood (4). Body weight was calculated as percent bodyweight loss: 0%-5% (0), 6%-10% (1), 11%-15% (2), 15%-20% (3), 20%-25% (4), and >25% (5). Scores of all three categories were summed to obtain an overall symptom score for each mouse.
as §1
Lamina propria (LP) cells were isolated from colons to be used for flow cytometry to identify immune cell populations within the colonic LP. Colons were rinsed in sterile ice-cold PBS and minced with scissors. Tissues were subjected to a cell dissociation solution (HBSS without Ca^2+Mg^2+ containing 5 mM EDTA and 1 mM DTT) in a shaking incubator for 30 min at 37° C. Tubes containing dissociated tissues were vortexed and passed through a 100 μm cell strainer; flow through containing intestinal epithelial cells (IECs) was discarded. Remaining tissue was subjected to a cell digestion buffer (HBSS with Ca^2+Mg^2+ containing 5% FBS, 5 mg/mL Collagenase D, 50 μg/mL DNase 1, and 1 U/mL Dispase) in a shaking incubator for 30 min at 37° C. Tubes were vortexed and passed through a 40 μm cell strainer. […]

[3] = throughout treatment, vs DSS+Veh

SMILES: C=CC(O)C#CC#CC/C=C\CCCCCCC (stereo in doubt) [PA, 3(R)-(9Z)-heptadeca-1,9-dien-4,6-diyn-3-ol]
- rectal bleeding ([1]; DAI, vs DSS+Veh): decreased
- stool consistency ([1]; DAI, vs DSS+Veh): improved
- reduction in ulcerations (endoscopic score) ([1]; day 42, vs DSS+Veh, p=0.001): 65%
- reduction in total lesions (endoscopic score) ([1]; day 42, vs DSS+Veh, p=0.005): 70%
- reduction in inflammation (endoscopic score) ([1]; day 42, vs DSS+Veh, p=0.016): 54%
- reduction in total endoscopic scores ([1]; day 42, vs DSS+Veh, p=0.016): 52%
- reduction in erosions (endoscopic score) ([1]; day 42, vs DSS+Veh, p=0.017): 74%
- body weight ([1]; end of study, not significant vs DSS+Veh 20.7±0.4, p=0.862): 20.3 ± 0.7 g
- DAI scores [1, 3]: significantly (p≤0.05) improved
- goblet cell count per crypt ([2]; Alcian Blue, DSS+Veh -75% vs Control, p=0.0003): rescued
- rectal bleeding ([2]; DAI, vs DSS+Veh): decreased
- stool consistency ([2]; DAI, vs DSS+Veh): improved
- average crypt width ([2]; H&E, DSS+Veh +124% vs Control, Pax vs Control p=0.641): not different from Control
- reduction in inflammation (endoscopic score) ([2]; day 14, vs DSS+Veh, p=0.012): 63%
- reduction in total endoscopic scores ([2]; day 14, vs DSS+Veh, p=0.014): 62%
- reduction in total lesions (endoscopic score) ([2]; day 14, vs DSS+Veh, p=0.029): 58%
- reduction in erosions (endoscopic score) ([2]; day 14, vs DSS+Veh, p=0.033): 55%
- reduction in ulcers (endoscopic score) ([2]; day 14, vs DSS+Veh, p=0.047): 62%
- widening and gaping of the crypts (SEM 3000×) ([2]; distal colon): partially rescued
- edema in the intercellular space of IECs (TEM) ([2]; distal colon, edema seen only in DSS+Veh): no edema
- mucus on mucosa (SEM 2000×) ([2]; distal colon, vs DSS+Veh): more areas of mucus formation, preservation, and abundance
- body weight ([2]; end of study, not significant vs DSS+Veh 18.4±0.6, p=0.383): 19.1 ± 0.4 g
- CD45+CD4+ helper T-cells in colonic LP ([2]; flow cytometry, between DSS-treated groups, p=0.446): no significant differences
- M1 macrophages in colonic LP ([2]; flow cytometry, vs DSS+Veh, p=0.011): decreased
- relative abundance of naïve (M0) macrophages in colonic LP ([2]; flow cytometry, vs DSS+Veh, p=0.019): increased
- TCRβ+FoxP3+ T-regs in colonic LP ([2]; flow cytometry, vs DSS+Veh, p=0.027): significantly increased
- M2 macrophages in colonic LP ([2]; flow cytometry, vs DSS+Veh, p=0.041): decreased
- LiveCD45+ immune cells in colonic LP ([2]; flow cytometry, vs DSS+Veh, p=0.056, not statistically significant): trending increase
- CD11b+CD68+ macrophages in colonic LP ([2]; flow cytometry, vs DSS+Veh, p=0.07, not statistically significant): decrease
- transitional (M1/M2) macrophages in colonic LP ([2]; flow cytometry, within DSS-treated groups, p=0.085): no significant differences
- crypt width distribution curve ([2]; rightward shift Control to DSS+Veh, FIG. 11C): significantly (p≤0.05) improved
- DAI scores [2, 3]: significantly (p≤0.05) improved

— patent US20240091169A1, “POL[…] FOR TREATING INFLAMMATORY DISEASES” (UNIVERSITY OF SOUTH CAROLINA, priority 2022, published 2024)
